Test results: US20090317395A1, “Antimicrobial Peptide Derived from Galanin Message Associated Peptide (GMAP)” (priority 2006, published 2009)
Several values for one entry are separate records, joined by “and”; a condition that tells them apart may be missing. Identical values can stand only once. Entries after “also recorded” stand apart in the source; their conditions may differ.

Assays:
Candida albicans [1] = test: Microscopic examination of treated Candida albicans cultures for hyphae (yeast-to-hypha switch); assay type: cell-based
Description: Cultures of Candida albicans were treated for 24 and 48 hrs either with the common antifungal substance fluconazol, GMAP 16-42 or Galanin.

Candida albicans [2] = test: Antifungal (growth inhibition) activity against C. albicans; assay type: cell-based; conditions: for inhibitory growth effect / antimicrobial activity against C. albicans: FIG. 3 (C), ** p<0.05
Source text: The inventors analyzed the antimicrobial activity of peptide fragments corresponding to ppGAL against gram-negative E. coli gram-positive Staphylococcus aureus and Corynebacterium sp. and the yeast Candida albicans and Aspergillus fumigatus. Positive controls were the antimicrobial peptides Indolicidin, NPY 13-36 and Magainin I, as a negative control served the Adrenocorticotropic hormone (ACTH) 18-39 (Cutuli M, Cristiani S, Lipton J M and Catania A: Antimicrobial effects of alpha-MSH peptides. J Leukoc Biol 67:233-239, 2000; Selsted M E, Novotny M J, Morris W L, Tang Y Q, Smith W and Cullor J S: Indolicidin, a novel bactericidal tridecapeptide amide from neutrophils. J Biol Chem. 267:4292-4295., 1992; Shimizu M, Shigeri Y, Tatsu Y, Yoshikawa S and Yumoto N: Enhancement of antimicrobial activity of neuropeptide Y by N-terminal truncation. Antimicrob Agents Chemother 42:2745-2746, 1998; Zasloff M: Magainins, a class of antimicrobial peptides from Xenopus skin: isolation, characterization of two active forms, and partial cDNA sequence of a precursor. Proc Natl Acad Sci USA 84:5449-5453, 1987).
None of the peptide fragments tested of the ppGal gene did reveal antibacterial activity. […] The antifungal activity can be found already at a concentration of […] (4 μM).

[3] = interpretation of microscopy findings

OC(Cn1cncn1)(Cn1cncn1)c1ccc(F)cc1F [fluconazol, reference compound]
microscopic examination of cultures: hyphae / yeast forms (Candida albicans [1]; treated for 24 and 48 hrs): hyphae were only visible in the untreated and galanin treated wells
microscopic examination of cultures: hyphae / yeast forms (Candida albicans [1]; treated for 48 hrs (FIG. 4)): hyphae were only visible in the untreated and galanin treated wells

ELRPEDDMKPGSFDRSIPENNIMRTIIEFLSFLHLKEAGAL (listed as Homo sapiens) [GMAP 1-41]
inhibitory growth effect / antimicrobial activity against C. albicans (Candida albicans [2]): active compound

GMAP: galanin message associated peptide; in b114 refers to the GMAP fragment treated wells (ELRPEDDMKPGSFDRSIPENNIMRTIIEFLSFLHLKEAGAL; listed as Homo sapiens)
effect on proliferation of Candida per se (Candida albicans [1]; [3]): not to significantly affect the proliferation of Candida per se
effect on switch to pathogenic hyphal forms (Candida albicans [1]; [3]): inhibits the switch to pathogenic hyphal forms; also recorded: inhibits the pathogenic phenotypic switch of C. albicans

SIPENNIMRTIIEFLSFLHLKEAGAL (listed as Homo sapiens) [GMAP 16-41]
concentration at which antifungal activity can be found (Candida albicans [2]; C. albicans): 12 pg/ml and 4 μM
inhibitory growth effect / antimicrobial activity against C. albicans (Candida albicans [2]): antimicrobial core sequence
